These results are taken from patent publication US10160762B2, “6-alkyl dihydropyrazolopyrimidinone compounds as PDE2 inhibitors” (Merck Sharp & Dohme Corp., priority 2015, dated 2018).

Usually Ki stands for a measure of affinity in units of concentration, obtained from inhibition or displacement.

Molecules are shown by their SMILES. Where two headings read alike, the source gives them in different places.

This experiment has as its target T1, Rhesus PDE2A3 (Macaca mulatta, UniProt B3VTJ2).
T1 construct: made in house; host or cells: AD293 cells, transient transfection; supernatant of sonicated lysate
T1 sequence (B3VTJ2 1-941): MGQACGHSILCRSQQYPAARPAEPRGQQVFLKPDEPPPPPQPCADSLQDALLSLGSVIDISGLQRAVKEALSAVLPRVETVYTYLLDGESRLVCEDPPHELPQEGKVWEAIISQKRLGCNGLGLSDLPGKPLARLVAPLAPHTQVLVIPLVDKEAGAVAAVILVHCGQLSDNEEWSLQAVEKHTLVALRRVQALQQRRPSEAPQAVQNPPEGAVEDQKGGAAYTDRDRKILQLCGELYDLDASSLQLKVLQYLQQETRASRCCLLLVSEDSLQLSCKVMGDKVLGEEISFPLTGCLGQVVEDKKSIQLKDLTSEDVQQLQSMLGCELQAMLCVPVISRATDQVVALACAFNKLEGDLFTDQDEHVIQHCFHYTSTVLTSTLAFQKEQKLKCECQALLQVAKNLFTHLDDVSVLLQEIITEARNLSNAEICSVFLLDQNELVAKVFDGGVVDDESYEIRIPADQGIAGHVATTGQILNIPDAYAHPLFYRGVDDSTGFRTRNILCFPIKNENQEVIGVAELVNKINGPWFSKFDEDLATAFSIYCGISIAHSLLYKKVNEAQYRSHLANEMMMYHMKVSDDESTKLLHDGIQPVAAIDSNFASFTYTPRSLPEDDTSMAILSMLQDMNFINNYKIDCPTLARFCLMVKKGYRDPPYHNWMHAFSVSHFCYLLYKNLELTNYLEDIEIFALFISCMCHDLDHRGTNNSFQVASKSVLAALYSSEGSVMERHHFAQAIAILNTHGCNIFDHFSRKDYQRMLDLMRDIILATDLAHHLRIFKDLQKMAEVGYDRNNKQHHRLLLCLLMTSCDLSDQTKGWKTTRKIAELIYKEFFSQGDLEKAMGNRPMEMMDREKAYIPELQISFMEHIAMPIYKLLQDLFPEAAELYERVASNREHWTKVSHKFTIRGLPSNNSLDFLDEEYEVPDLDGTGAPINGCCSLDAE
Kind of experiment: PDE2 fluorescence polarization (IMAP FP) inhibition assay, rhesus PDE2A3. The format is biochemical, rhesus macaque. The gist of the method: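 Enzyme source was the lysate supernatant of AD293 cells transiently expressing rhesus PDE2A3, diluted to give 20% conversion of 50 nM FAM-cAMP, with 1 µM cGMP as activator. Buffer was 10 mM Tris pH 7.2, 10 mM MgCl2, 1 mM DTT.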

Where [1] appears, read: Lab A, read-out: Rhesus PDE2 Ki (nM) Lab A.
The mark [2] stands for this setting: Lab B, read-out: Rhesus PDE2 Ki (nM) Lab B.

`Cc1nc(-c2nc3c(c(C)nn3C(C)c3ccc(C(F)(F)F)cc3)c(=O)[nH]2)c(C)o1` (centres unmarked) [Example 54, 6-(2,5-Dimethyl-1,3-oxazol-4-yl)-3-methyl-1-{1-[4-(trifluoromethyl)phenyl]ethyl}-1,5-dihydro-4H-pyrazolo[3,4-d]pyrimidin-4-one]: the Ki under setting [1] was found to be 32 nM.

Regarding `Cc1nc2c(c(CO)nn2C(C)c2ccc(C(F)(F)F)c(F)c2)c(=O)[nH]1` (single isomer, unassigned) [Example 12, (R)- or (S)-1-(1-(3-Fluoro-4-(trifluoromethyl)phenyl)ethyl)-3-(hydroxymethyl)-6-methyl-1H-pyrazolo[3,4-d]pyrimidin-4(5H)-one], the Ki was determined as 278 nM under setting [1] and 514 nM under setting [2].

For the compound `Cc1nc2c(c(C)nn2C(C)c2ccc(C(F)(F)F)cc2)c(=O)[nH]1` (single isomer, unassigned) [Example 36], under setting [1], the Ki is 443 nM.

Regarding `Cc1nc2c(c(CO)nn2[C@@H](C)c2ccc(C(C)(C)C)cc2)c(=O)[nH]1` [Example 157, (S)-1-(1-(4-tert-Butylphenyl)ethyl)-3-(hydroxymethyl)-6-methyl-1H-pyrazolo[3,4-d]pyrimidin-4(5H)-one], the inhibition constant Ki under setting [2] is 0.96 nM.

Consider `Cc1nc2c(c(C(F)F)nn2C(C)c2ccc(C(F)(F)F)cc2)c(=O)[nH]1` (centres unmarked) [Example 166, 3-(Difluoromethyl)-6-methyl-1-{1-[4-(trifluoromethyl)phenyl]ethyl}-1,5-dihydro-4H-pyrazolo[3,4-d]pyrimidin-4-one], for which the Ki reads like this: under setting [1], 6.7 nM; under setting [2], 7.9 nM.

In the case of `Cc1nc2c(c(CO)nn2C(C)c2ccc(C3CC3)cc2)c(=O)[nH]1` (centres unmarked) [Example 3, 1-(1-(4-Cyclopropylphenl)ethyl)-3-(hydroxymethyl)-6-methyl-1H-pyrazolo[3,4-d]pyrimidin-4(5H)-one], the Ki reads like this: under setting [1], 1.8 nM; under setting [2], 5.6 nM.

As to `Cc1nn(C(C)c2ccc(C(F)(F)F)cc2)c2nc(-c3ccccn3)[nH]c(=O)c12` (centres unmarked) [Example 52, 3-Methyl-6-pyridin-2-yl-1-{1-[4-(trifluoromethyl)phenyl]ethyl}-1,5-dihydro-4H-pyrazolo[3,4-d]pyrimidin-4-one], under setting [1], the inhibitory constant (Ki) was found to be 28 nM.

For the compound `Cc1nc2c(c(CO)nn2C(c2ccc(C(F)(F)F)c(F)c2)C(C)(C)C)c(=O)[nH]1` (single isomer, unassigned) [Example 129, (S)- or (R)-1-(1-(3-Fluoro-4-(trifluoromethyl)phenyl)-2,2-dimethylpropyl)-3-(hydroxyl-methyl)-6-methyl-1H-pyrazolo-[3,4-d]pyrimidin-4(5H)-one], the Ki under setting [2] is 6.9 nM.

As for `COCc1nc2c(c(CF)nn2C(C)c2ccc(C(F)(F)F)cc2)c(=O)[nH]1` (centres unmarked) [Example 205, 3-(Fluoromethyl)-6-(methoxymethyl)-1-{1-[4-(trifluoromethyl)phenyl]ethyl}-1,5-dihydro-4H-pyrazolo[3,4-d]pyrimidin-4-one], the inhibitory constant (Ki) under setting [2] was found to be 3.2 nM.

Turning to `Cc1nn(C(C)c2ccc(C(F)(F)F)cc2)c2nc(-c3cnc4ccccc4n3)[nH]c(=O)c12` (centres unmarked) [Example 50, 3-Methyl-6-quinoxalin-2-yl-1-{1-[4-(trifluoromethyl)phenyl]ethyl}-1,5-dihydro-4H-pyrazolo[3,4-d]pyrimidin-4-one], the inhibition constant (Ki) under setting [1] came to 62 nM.

For `Cc1nc2c(c(C(C)O)nn2C(C)c2ccc(C(F)(F)F)cc2)c(=O)[nH]1` (centres unmarked) [Example 328, 3-(1-Hydroxyethyl)-6-methyl-1-{1-[4-(trifluoromethyl)phenyl]ethyl}-1,5-dihydro-4H-pyrazolo[3,4-d]pyrimidin-4-one], the inhibition constant Ki was 22 nM under setting [1] and 33 nM under setting [2].

As for `Cc1nc2c(c(C(F)F)nn2C(C)c2ccc(C(F)(F)F)cc2)c(=O)[nH]1` (single isomer, unassigned) [Example 176], under setting [2], the inhibition constant (Ki) turned out to be 1.4 nM.

`Cc1nc2c(c(C)nn2C(C)c2ccc(C(F)(F)F)cc2)c(=O)[nH]1` (single isomer, unassigned) [Example 37]: the Ki under setting [1] came out at 23 nM.

Turning to `Cc1ccc(C(C)n2nc(CF)c3c(=O)[nH]c(C)nc32)cc1` (centres unmarked) [Example 203, 3-(Fluoromethyl)-6-methyl-1-(1-p-tolylethyl)-1H-pyrazolo[3,4-d]pyrimidin-4(5H)-one], the Ki by setting is: under setting [1], roughly 12 nM; under setting [2], 12 nM.

Regarding `Cc1nc2c(c(CO)nn2C(c2ccc(OC(F)(F)F)cc2)C2CC2)c(=O)[nH]1` (single isomer, unassigned) [Example 94, (R)- or (S)-1-(Cyclopropyl(4-(trifluoromethoxy)phenyl)methyl)-3-(hydroxymethyl)-6-methyl-1H-pyrazolo[3,4-d]pyrimidin-4(5H)-one], the Ki under setting [2] stood at 18 nM.

With `Cc1nn(C(C)c2ccc(C(F)(F)F)cc2)c2nc(-c3ccco3)[nH]c(=O)c12` (centres unmarked) [Example 49, 6-Furan-2-yl-3-methyl-1-{1-[4-(trifluoromethyl)phenyl]ethyl}-1,5-dihydro-4H-pyrazolo[3,4-d]pyrimidin-4-one], the Ki under setting [1] was 9 nM.

Take `Cc1nc2c(c(CF)nn2C(C)c2ccc(OC(F)(F)F)c(F)c2)c(=O)[nH]1` (single isomer, unassigned) [Example 216, (R)- or (S)-1-(1-(3-Fluoro-4-(trifluoromethoxy)phenyl)ethyl)-3-(fluoromethyl)-6-methyl-1H-pyrazolo[3,4-d]pyrimidin-4(5H)-one]: the inhibitory constant (Ki) by setting is: under setting [1], 19 nM; under setting [2], 41 nM.

Take `Cc1nc2c(c(CO)nn2C(c2ccc(C(F)(F)F)cc2)C(F)(F)F)c(=O)[nH]1` (centres unmarked) [Example 6, 3-(Hydroxymethyl)-6-methyl-1-(2,2,2-trifluoro-1-(4-(trifluoromethyl)phenyl)ethyl)-1H-pyrazolo[3,4-d]pyrimidin-4(5H)-one]: the Ki under setting [1] turned out to be 1.6 nM and the Ki under setting [2] is 3.5 nM.

Consider `Cc1nc2c(c(CF)nn2C(c2ccc(C(F)(F)F)cc2)C2CC2)c(=O)[nH]1` (centres unmarked) [Example 231, 1-(cyclopropyl(4-(trifluoromethyl)phenyl)methyl)-3-(fluoromethyl)-6-methyl-1H-pyrazolo[3,4-d]pyrimidin-4(5H)-one], for which the inhibition constant (Ki) under setting [1] was 0.87 nM and the Ki under setting [2] came to 1.2 nM.

With `CCCc1nc2c(c(C)nn2C(C)c2ccc(C(F)(F)F)cc2)c(=O)[nH]1` (centres unmarked) [Example 41, 3-Methyl-6-propyl-1-{1-[4-(trifluoromethyl)phenyl]ethyl}-1,5-dihydro-4H-pyrazolo[3,4-d]pyrimidin-4-one], the Ki under setting [1] was found to be 64 nM.

With `Cc1nn(C(C)c2ccc(C(F)(F)F)cc2)c2nc(-c3cnn(C)c3)[nH]c(=O)c12` (centres unmarked) [Example 53, 3-Methyl-6-(1-methyl-1H-pyrazol-4-yl)-1-{1-[4-(trifluoromethyl)phenyl]ethyl}-1,5-dihydro-4H-pyrazolo[3,4-d]pyrimidin-4-one], the Ki under setting [1] turned out to be 29 nM.

Turning to `Cc1nc2c(c(CF)nn2C(C)c2ccc(C(F)(F)F)cc2)c(=O)[nH]1` (centres unmarked) [Example 204, 3-(Fluoromethyl)-6-methyl-1-{1-[4-(trifluoromethyl)phenyl]ethyl}-1,5-dihydro-4H-pyrazolo[3,4-d]pyrimidin-4-one], the Ki under setting [1] turned out to be 4 nM.

As for `COc1ccc(Cc2nc3c(c(CF)nn3C(C)c3ccc(C(F)(F)F)cc3)c(=O)[nH]2)cc1OC` (single isomer, unassigned) [Example 223, (S)- or (R)-6-(3,4-Dimethoxybenzyl)-3-(fluoromethyl)-1-(1-(4-(trifluoromethyl)phenyl)ethyl)-1,5-dihydro-4H-pyrazolo[3,4-d]pyrimidin-4-one], the inhibition constant (Ki) under setting [1] is 26 nM.

As to `Cc1nc2c(c(C(F)F)nn2C(c2ccc(OC(F)(F)F)c(F)c2)C2CC2)c(=O)[nH]1` (centres unmarked) [Example 193, 1-(Cyclopropyl(3-fluoro-4-(trifluoromethoxy)phenyl)methyl)-3-(difluoromethyl)-6-methyl-1H-pyrazolo[3,4-d]pyrimidin-4(5H)-one], the Ki under setting [2] was determined as 1.2 nM.

For `Cc1nc2c(c(CO)nn2C(C)c2ccc(C(F)(F)F)cc2)c(=O)[nH]1` (centres unmarked) [Example 7, 3-(Hydroxymethyl)-6-methyl-1-(1-(4-(trifluoromethyl)phenyl)ethyl)-1H-pyrazolo[3,4-d]pyrimidin-4(5H)-one], the inhibition constant Ki under setting [1] was determined as 19 nM.

For `Cc1nc2c(c(CF)nn2C(C)c2ccc(C(F)(F)F)c(F)c2)c(=O)[nH]1` (centres unmarked) [Example 230, 1-(1-(3-Fluoro-4-(trifluoromethyl)phenyl)ethyl)-3-(fluoromethyl)-6-methyl-1H-pyrazolo[3,4-d]pyrimidin-4(5H)-one], the Ki is, setting by setting: under setting [1], 2.3 nM; under setting [2], 3.4 nM.
